From PMC7327383, “The affinity and selectivity of α‐adrenoceptor antagonists, antidepressants, and antipsychotics for the human α1A, α1B, and α1D‐adrenoceptors” (Pharmacology Research & Perspectives, 2020)
Where two headings read alike, the source gives them in different places.

How the values were obtained:
[1] = molecular target: T1, full-length human α1D-adrenoceptor (Homo sapiens, UniProt P25100); test: [3H]prazosin whole-cell competition binding, CHO-α1D cells
T1 sequence (P25100 1-572): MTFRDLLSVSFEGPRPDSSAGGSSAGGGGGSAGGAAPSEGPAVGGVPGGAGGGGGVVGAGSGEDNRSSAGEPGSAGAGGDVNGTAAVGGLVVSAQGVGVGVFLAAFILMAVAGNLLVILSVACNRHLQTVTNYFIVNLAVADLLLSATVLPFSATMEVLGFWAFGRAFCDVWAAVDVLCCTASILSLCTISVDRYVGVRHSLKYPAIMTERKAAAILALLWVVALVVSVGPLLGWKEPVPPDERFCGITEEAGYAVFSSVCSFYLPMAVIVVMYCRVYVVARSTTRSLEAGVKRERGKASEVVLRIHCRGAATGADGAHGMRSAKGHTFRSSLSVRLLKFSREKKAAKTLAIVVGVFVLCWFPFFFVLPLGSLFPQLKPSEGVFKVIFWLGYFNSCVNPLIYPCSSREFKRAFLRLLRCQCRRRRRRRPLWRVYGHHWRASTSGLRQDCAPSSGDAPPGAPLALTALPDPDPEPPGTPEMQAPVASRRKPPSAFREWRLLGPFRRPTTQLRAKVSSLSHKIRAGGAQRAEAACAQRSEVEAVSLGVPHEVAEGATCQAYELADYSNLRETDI

[2] = molecular target: T2, human α1A-adrenoceptor (Homo sapiens, UniProt P35348); test: [3H]prazosin whole-cell competition binding, CHO-α1A cells
T2 construct: CHO cells stably expressing either the full‐length human α1A, α1B, or α1D‐adrenoceptor
T2 sequence (P35348 1-466): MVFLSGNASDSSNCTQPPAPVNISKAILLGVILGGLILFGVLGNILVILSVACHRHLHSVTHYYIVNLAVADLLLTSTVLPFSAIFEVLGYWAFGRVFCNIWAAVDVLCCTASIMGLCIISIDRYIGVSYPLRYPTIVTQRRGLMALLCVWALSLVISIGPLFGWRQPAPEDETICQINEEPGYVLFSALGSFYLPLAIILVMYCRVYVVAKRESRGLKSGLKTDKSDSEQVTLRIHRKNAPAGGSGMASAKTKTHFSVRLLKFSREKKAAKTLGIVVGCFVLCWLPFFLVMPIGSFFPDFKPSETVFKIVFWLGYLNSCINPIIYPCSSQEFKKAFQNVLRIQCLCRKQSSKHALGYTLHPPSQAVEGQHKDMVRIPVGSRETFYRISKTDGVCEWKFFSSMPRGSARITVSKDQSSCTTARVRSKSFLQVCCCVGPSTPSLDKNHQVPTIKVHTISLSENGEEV

[3] = molecular target: T3, human α1B-adrenoceptor (Homo sapiens, UniProt P35368); test: [3H]prazosin whole-cell competition binding, CHO-α1B cells; details: for Selectivity ratio α1B vs α1D: ratio of KD values, higher α1B affinity, 1.0 under vs = none
T3 construct: CHO cells stably expressing either the full‐length human α1A, α1B, or α1D‐adrenoceptor
T3 sequence (P35368 1-520): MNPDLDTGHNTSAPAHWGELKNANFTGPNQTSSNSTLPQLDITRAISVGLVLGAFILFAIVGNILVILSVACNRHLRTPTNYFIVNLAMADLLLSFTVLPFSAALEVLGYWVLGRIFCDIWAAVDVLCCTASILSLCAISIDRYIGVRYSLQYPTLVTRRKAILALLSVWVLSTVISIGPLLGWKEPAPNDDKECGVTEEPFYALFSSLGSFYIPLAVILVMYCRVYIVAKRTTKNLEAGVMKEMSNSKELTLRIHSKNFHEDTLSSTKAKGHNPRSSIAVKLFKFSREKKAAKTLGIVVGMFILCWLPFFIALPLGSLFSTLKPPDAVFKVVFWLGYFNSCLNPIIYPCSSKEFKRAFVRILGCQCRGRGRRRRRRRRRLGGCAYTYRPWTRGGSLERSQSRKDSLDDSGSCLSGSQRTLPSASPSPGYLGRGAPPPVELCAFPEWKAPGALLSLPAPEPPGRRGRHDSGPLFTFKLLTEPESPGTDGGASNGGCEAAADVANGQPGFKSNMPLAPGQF

[4] = ratio of KD values, higher α1D affinity (site 1 KD)
[5] = ratio of KD values, higher α1A affinity, 1.0 under vs = none
[6] = ratio of KD values, printed under α1A = higher α1A affinity, 1.0 under vs = none
[7] = single-component inhibition curve, given as log KD (negative), mean ± SE mean, read-out: Log KD α1A (converted)
[8] = ratio, 1 = no selectivity for a subtype over another
[9] = single-component inhibition curve, given as log KD (negative), mean ± SE mean, read-out: Log KD α1B (converted)
[10] = Log KD α1D, single-component inhibition curve, given as log KD (negative), mean ± SE mean
[11] = single-component inhibition curve, given as log KD (negative), mean ± SE mean
[12] = selectivity ratio, 1 = no selectivity for a given receptor subtype over another
[13] = log KD from 3H-prazosin whole cell binding, CHO cells, mean ± s.e.mean

| Compound | Selectivity ratio α1B vs α1D [1, 4] [fold] | Selectivity ratio α1A vs α1D [2, 5] [fold] | Selectivity ratio α1A vs α1B [2, 6] [fold] | Kd [2, 7] [nM] | selectivity α1B vs α1D [3, 8] | Kd [3, 9] [nM] | Kd [1, 10] [nM] | selectivity α1A vs 1D [2, 8] | Selectivity ratio α1B vs α1D [3] [fold] | further results |
| --- | --- | --- | --- | --- | --- | --- | --- | --- | --- | --- |
| Labetolol | – | – | – | – | – | – | – | – | – | Selectivity ratio α1B vs α1D [1]: 1.6 fold; Selectivity ratio α1A vs α1B [2]: 26 fold; Selectivity ratio α1A vs α1D [2]: 16 fold; selectivity α1B vs α1D [3]: 1.6 |
| CC(C)(C)NCC(O)COc1cccc2[nH]c(C#N)cc12 (stereo not drawn) [Cyanopindolol] | 3.1 | 1.5 | 4.8 | 2570 | 3.1 | 12300 | – | – | – | Kd [1]: 3980 nM |
| COc1ccccc1N1CCN(CCCNc2cc(=O)n(C)c(=O)n2C)CC1 [Urapidil] | 7.4 | 6.9 | 51 | 61.7 | 7.4 | 3160 | 427 | – | – | – |
| CNCCCN1c2ccccc2CCc2ccc(Cl)cc21 [Norclomipramine] | – | 48 | 48 | – | – | – | – | 48 | 1.0 | Log KD α1D [1, 11]: −5.84 ± 0.06; selectivity α1A vs α1B [2, 8]: 48; selectivities α1A vs α1B [2, 12]: 48; selectivities α1A vs α1D [2, 12]: 48; Log KD α1A [2, 11]: −7.52 ± 0.08; Log KD α1B [3, 11]: −5.84 ± 0.04 |
| CC(CN1c2ccccc2Sc2ccccc21)N(C)C (stereo not drawn) [Promethazine] | – | 18 | 8.7 | 100 | – | 871 | 1780 | – | 2.0 | – |
| CN1CCc2cccc(Cl)c2CC1 [SKF86466] | – | – | – | – | – | – | – | – | – | Kd [1]: 6920 nM; Selectivity ratio α1B vs α1D [1]: 1.7 fold; Kd [2]: 871 nM; Selectivity ratio α1A vs α1B [2]: 13 fold; Selectivity ratio α1A vs α1D [2]: 7.9 fold; selectivity α1A vs α1B [2]: 13.5; Kd [3]: 11700 nM; selectivity α1B vs α1D [3]: 1.7 |
| CCn1ccnc1CC1COc2ccccc2O1 (stereo not drawn) [Imiloxan] | >10 | – | >4.0 | 25100 | >10 | – | 9550 | 2.6 | – | Selectivity ratio α1A vs α1D [1, 4]: 2.6 fold |
| COc1ccc(C(CN(C)C)C2(O)CCCCC2)cc1 (stereo not drawn) [Venlafaxime] | >24 | – | >4.9 | – | >24 | – | – | 4.9 | – | Selectivity ratio α1A vs α1D [1, 4]: 4.9 fold; Log KD α1D [1, 11]: −4.38 ± 0.16; Log KD α1A (apparent) ([2]; app: top concentration inhibited most but not all specific binding, curve extrapolated): −3.69 ± 0.02^app; Log KD α1B: result in words ([3]; no inhibition of [3H]prazosin binding at maximum concentration possible): No binding to 1 mmol/L; binding at α1B ([3]; result in words in the Log KD α1B column): No binding to 1mM; binding at α1B (result in words) ([3]; up to the maximum concentration): No binding to 1mM |
| O=C(NC1CCN(CCc2c[nH]c3ccccc23)CC1)c1ccccc1 [Indoramin] | – | 138 | 41 | 3.72 | – | 151 | 513 | – | 3.4 | α1A selectivity ([2]; for α1A over the α1B or α1D-adrenoceptors): 40 fold |
| COc1ccccc1N1CCN(CC2CN3C(=O)N(C)c4ccccc4C3=N2)CC1 (stereo not drawn) [2-MPMDQ] | – | – | – | – | – | – | – | – | – | % site 1 α1D ([1]; two-component inhibition curve, proportion of site 1): 64.0 ± 2.1%; Log KD α1A [2, 13]: -9.06 ± 0.07; Log KD α1B [3, 13]: -7.37 ± 0.04 |
